Laboratory results from ChEMBL document CHEMBL1129925, “Synthesis and antiviral evaluation of 4-hydroxymethyl-2, 3-dideoxy-3-thianucleosides and their cyclic monophosphates” (Bioorg Med Chem Lett, 1997).
The source made the active and inactive calls. The rule behind the calls is not given here.

How the values were obtained:
[1] = Antiviral activity in PBM cells expressed as IC50; format: functional, cell-based, Homo sapiens
[2] = Antiviral activity in PBM cells expressed as CC50; format: functional; details: Homo sapiens, PBMC
CEM-SS = assay: Tested for anti-HIV activity in CEM-SS cell line; Inactive; format: functional, cell-based; details: Homo sapiens
H9 = assay: Antiviral activity in H9 cells expressed as IC50; format: functional, cell-based; details: Homo sapiens
MT4 [3] = assay: Antiviral activity in MT-4 cells expressed as IC50; format: functional, cell-based, Homo sapiens
MT4 [4] = assay: Antiviral activity in MT-4 cells expressed as CC50; format: functional; details: Homo sapiens
CCRF-CEM [5] = assay: Cytotoxicity against CEM cells; format: functional; details: Homo sapiens
MT4 [6] = assay: Cytotoxicity against MT-4 cells; format: functional; details: Homo sapiens
[7] = Antiviral activity in PBM cells; format: functional, cell-based; details: Homo sapiens, PBMC
[8] = Cytotoxicity against PBM cells; format: functional; details: Homo sapiens, PBMC
MT4 [9] = assay: Antiviral activity in MT-4 cells; format: functional, cell-based; details: Homo sapiens
CD-4+ (A 3.01) [10] = assay: Antiviral activity in CD-4+ (A 3.01) cell line expressed as CC50; format: functional
CD-4+ (A 3.01) [11] = assay: Antiviral activity in CD-4+ (A 3.01) cell line expressed as IC50; format: functional, cell-based
CCRF-CEM [12] = assay: Antiviral activity in CEM cells expressed as CC50; format: functional; details: Homo sapiens

`Nc1ccn([C@@H]2CS[C@H](CO)O2)c(=O)n1` (stereo in doubt; (+)) [LAMIVUDINE] showed an IC50 [1] of 210 nM and a CC50 [2] greater than 100000 nM.
For `Nc1ccn(C2CSC(CO)(CO)O2)c(=O)n1` (centres undefined), the Anti-HIV activity (CEM-SS) was “inactive”.
With `Cc1cn(C2CSC3(COP(=O)(O)OC3)O2)c(=O)[nH]c1=O` (centres undefined) the Anti-HIV activity (CEM-SS) was “inactive”.
For `Nc1ccn(C2CSC3(COP(=O)(O)OC3)O2)c(=O)n1` (centres undefined), the Anti-HIV activity (CEM-SS) was “inactive”.
In the case of `Cc1cn(C2CSC(CO)(CO)O2)c(=O)[nH]c1=O` (centres undefined), the Anti-HIV activity (CEM-SS) is reported as “inactive”.
`Nc1ccn(C2CC(CO)C(CO)O2)c(=O)n1` (centres undefined) gave an IC50 (H9) of 10 nM.
`Nc1ccn([C@@H]2CS[C@H](CO)O2)c(=O)n1` (racemic) [LAMIVUDINE] gave an IC50 (MT4 [3]; Homo sapiens, MT4) of 370 nM and a CC50 (MT4 [4]) of 405000 nM.
For `Nc1ccn([C@@H]2CS[C@H](CO)O2)c(=O)n1` (single isomer, unassigned) [LAMIVUDINE], the CC50 (CCRF-CEM [5]) was 363000 nM, the CC50 (MT4 [6]) was 407000 nM and the IC50 [7] was 210 nM. The CC50 [8] was greater than 100000 nM and the IC50 (MT4 [9]) was 370 nM.
In the case of `Cc1cn([C@H]2C[C@H](O)[C@](CO)(N=[N+]=[N-])O2)c(=O)[nH]c1=O`, the CC50 (CD-4+ (A 3.01) [10]) is reported as 8000 nM and the IC50 (CD-4+ (A 3.01) [11]) is reported as 10 nM.
`Nc1ccn([C@@H]2CS[C@H](CO)O2)c(=O)n1` (stereo in doubt; (-)) [LAMIVUDINE] showed a CC50 (CCRF-CEM [12]) of 363000 nM, an IC50 (MT4 [3]; mt4) of 610 nM and an IC50 [1] of 2 nM.
